Experimental data from patent US6287813A, “Antibiotic-based gene regulation system” (Cistronics Cell Technology GmbH, priority 1999, dated 2001).

Columns and labels:
PIT/PPIR system = target: T1, PIT/PPIR system (Streptomyces coelicolor, UniProt Q9ADN3); assay: Dose-response of PI-dependent SEAP expression in CHO-PIT1-SEAP; type: cell-based; details: 48 h
T1 construct: pMF156/pTWIN in CHO cells, PPIR-SEAP or GFP reporter
T1 sequence (Q9ADN3 1-252): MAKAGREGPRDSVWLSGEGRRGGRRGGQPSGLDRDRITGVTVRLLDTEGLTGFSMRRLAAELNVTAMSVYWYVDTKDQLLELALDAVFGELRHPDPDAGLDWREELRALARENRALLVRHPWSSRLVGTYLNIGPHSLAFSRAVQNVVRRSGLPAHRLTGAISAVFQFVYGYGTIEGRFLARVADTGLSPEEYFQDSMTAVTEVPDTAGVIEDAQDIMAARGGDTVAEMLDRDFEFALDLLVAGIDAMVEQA
Experimental: FIG. 2: Dose-response curve for PI-dependent gene expression. The cell line CHO-PIT1-SEAP was grown for 48 h at different PI concentrations (ng/ml). The relative SEAP production is shown over 5 orders of magnitude of PI concentration.
Chinese hamster ovary cells (CHO-K1, ATCC: CCL 61), Baby hamster kidney cells (BHK-21, ATCC: CRL-8544), and HeLa cells (ATCC: CRL-7923) as well as stable cell lines CHO-PIT1, CHO-PIT2, CHO-TWIN195, CHO-TWIN1108 and CHO-PIT1-SEAP were cultured as described before (Fussenegger et al., 1998, Nat. Biotechnol. 16,468-472) in the presence of appropriate antibiotics: G418 400 μg/ml; zeocin 100 μg/ml. Optimized CaPO4 protocols were used for high efficiency transient transfection of all cell lines (id). Transient transfected cells were routinely analyzed after 48 h for GFP or SEAP expression using fluorescence microscopy and p-nitrophenolphosphate-based light absorbance timecourse, respectively, as described before (Fussenegger et al., 1998, Nat. Biotechnol. 16, 468-472; Berger et al., 1988, Gene 66, 1-10 b). For construction of stable CHO-PIT and CHO-TWIN cell lines, CHO-K1 was cotransfected either with pMF156 or pTWIN1 and pSV2neo carrying the G418 resistance gene. CHO-PIT1-SEAP was constructed by cotransfection of pMF172 and pZeoSV2 (Invitrogen). For assessment of dose-response characteristics of PPIR -regulated gene expression, CHO-PIT1-SEAP were cultured at cell densities of 150,000/ml for 48 at various PI concentrations. The mixed populations were cloned using FACS-mediated single-cell-sorting (FACStar^Plus; Beckton Dickinson). Gel retardation assay were performed as described (Salah-Bey et al., 1995, supra) using Pip purified from an overproducing strain of E. coli. Pip (0.02 pmol) was titrated with a range of antibiotic concentrations in a reaction volume of 20 μl. […]
The levels of PPIR -regulated gene expression could be controlled by varying the concentrations of PI used for induction. This was assessed using a stable CHO cell line (CHO-PIT1-SEAP) which expresses PPIR -SEAP (pMF172) and contains also a constitutive PIT expression vector (pMF156). […]

CHO cells = assay: CHO cell morphology, growth and toxicity; type: cell-based, Chinese hamster
Experimental: However, pristinamycin has no influence on expression levels of PSV40 or PCMV -driven SEAP expression constructs (data not shown). […] Similar PI-dependent gene expression using the PIT/PPIR system has also been observed in BHK-21 and HeLa cells (not shown). […] This is the same order of magnitude as tissue concentrations reached in antibiotic therapy. Only much higher PI concentrations (above 50 μg/ml) were toxic for CHO cells.

In the case of pristinamycin I [PI], the “PI concentration at which PIT/PPIR is fully induced” value (PIT/PPIR system) is reported as < 10 ng/mL, the “PI concentration at which PIT/PPIR is repressed (lowest SEAP expression)” value (PIT/PPIR system) is reported as > 500 ng/mL and the “PI concentration window in which gene expression can be adjusted” value (PIT/PPIR system) is reported as 10 to 500 ng/mL. For the same substance, the “Effects on CHO cell morphology and growth” value (CHO cells; PI 2 μg/ml) was “No deleterious effects” and the “PI concentration toxic for CHO cells” value (CHO cells; hamster, cho cells) was “above 50 μg/ml”.
